Experimental data reported in US20260174860A1, “HYBRID COMPOUNDS OF SCLAREOL AND DOXORUBICIN, THEIR SYNTHESIS AND APPLICATION” (INSTITUTE FOR BIOLOGICAL RESEARCH "SINISA STANKOVIC" - …, priority 2023, published 2026).
Where two headings read alike, the source gives them in different places.

Key:
[1] = system: Balb/c mice; test: Comparative toxicology study of DOX and CON1; assay type: in vivo; conditions: i.p.; for creatine phosphokinase (CPK): after 72 h, only DOX significant; for other blood parameters (RBC, HGB, HCT, MCV, MCH, MCHC, RDW, PLT, MPV): data not shown; for percentage of lymphocytes (% LYM, LYM, WBC) / percentage of monocytes and granulocytes (% MON and % GRA): over time
Description: Male Balb/c mice, aged 7-11 weeks, were sourced from the EL-42BIO/Br-01 (Laboratory of Pharmacology, School of Medicine, University of Thessaly, Larissa, Greece). The mice were kept in an environment with a 12-hour light/dark cycle, humidity of around 50-60%, and a temperature of 20-22° C. They had free access to food and water. The handling and experimentation of the mice were conducted in compliance with the Greek laws (PD 56/2013 and Circular 2215/117550/2013) and the European Union guidelines ([…]). The protocol was approved by the IACUC and Greek authorities (License no. 58376/13.02.2023). The mice were divided into three groups with two mice per group, amounting to a total of 18 mice. They were treated as follows: Group 1 received vehicle (10% DMSO and 5% Tween80); Group 2-DOX received 7 mg/kg of body weight via intraperitoneal injection (i.p.); Group 3 received CON1 at 14 mg/kg of body weight (to achieve a DOX concentration of 7 mg/kg of body weight), i.p. The study took place over three time points: 24 h, 48 h and 72 h. At the end of each period, blood samples were collected from the mice's tails and cheeks, and the mice were euthanized by CO2 inhalation followed by cervical dislocation. Fresh blood samples were analyzed using the scil Vet ABC™Hematology Analyzer (scil animal care company GmbH, Germany), while sera from all samples were extracted and analyzed using the Skyla VB1 Veterinary Clinical Chemistry Analyzer (Skyla Corporation, Taiwan) with the Critical Care Panel (900-330) (Skyla Corporation, Taiwan).

[2] = system: U87, U87-TxR, U251, NCI-H460, NCI-H460/R, DLD1, DLD1-TxR and MRC-5; test: MTT cytotoxicity across the cell line panel (FIG. 1); assay type: cell-based; conditions: Homo sapiens
Description: The MTT test was used to evaluate the effect of the compounds on cell viability. The test relies on the reduction of tetrazolium salt (MTT) to formazan, which is catalyzed by the mitochondrial enzyme succinate dehydrogenase. The activity of succinate dehydrogenase, which is indicative of mitochondrial respiration, is taken as an indirect measure of the metabolic activity of the cell, and thus its viability. The MTT-formazan produced is a purple-colored product, whose absorbance is measured at a wavelength of 570 nm. • a) To determine the inhibition of cell growth by SC, different cell lines were exposed to increasing concentrations of SC (5, 10, 25, 50, and 100 μM). […] The absorbance of the samples was measured at 570 nm using a Multiskan Sky Microplate spectrophotometer (ThermoFisher Scientific, USA). The results were analyzed using GraphPad Prism 8.0.2. software, and the IC50 values were determined by non-linear regression. • b) To test the interaction between SC and DOX in terms of cytotoxicity in different cell lines, cells were seeded in 96-well microtiter plates at a density of 2,000 cells per well for NCI-H460, NCI-H460/R, DLD1 and DLD1-TxR, and 4,000 cells per well for MRC-5, U87, U87-TxR, and U251 in 100 μl of the appropriate medium. […]

[3] = target: T1, P-glycoprotein activity in NCI-H460/R (Homo sapiens, UniProt P08183); test: DOX and rhodamine 123 accumulation test, flow cytometry; assay type: cell-based
T1 construct: obtained by successive exposure of NCI-H460 cells to increasing concentrations of DOX; endogenous in cells; host or cells: NCI-H460/R (doxorubicin-selected from NCI-H460)
Description: (§1) • a) First, DOX accumulation test was performed on three glioblastoma cell lines, U87, U87-TxR, and U251. Cells were trypsinized and counted, and then 100,000 cells per sample were collected in a tube for flow cytometry and resuspended in 500 μL of culture medium. Cells were treated with 20 μM and 50 µM SC. Immediately after SC treatment, cells were treated with 20 μM DOX, and samples were incubated at 37° C. in a humid atmosphere with 5% CO2 for 60 min. After the accumulation period, the samples were centrifuged, washed twice with cold Phosphate Buffered Saline (PBS), and finally resuspended in 1 mL of PBS. The fluorescence of the samples was read on the FL2 (red channel) of a cytofluorimeter (Partec, Munster, Germany), and the results were analyzed with the software package Summit 4.3. • b) Secondly, DOX and rhodamine 123 accumulation test was performed on non-small cell lung carcinoma cell lines NCI-H460 and NCI-H460/R. Cells were trypsinized and counted, and then 100,000 cells per sample were collected in a tube for flow cytometry and resuspended in 500 μl of culture medium. Cells were treated with 50 μM SC. Immediately after treatment, 5 μM Rho123 was added to one group of samples and the other 20 μM DOX. […] The samples were analyzed using a flow cytometer, reading for rhodamine 123 on FL1 (green channel) and DOX on FL2 (red channel). […]

[4] = system: glioblastoma cell lines U87, U87-TxR and U251; test: DOX accumulation test, flow cytometry; assay type: cell-based, human; conditions: 20 μM and 50 μM SC with 20 μM DOX, 60 min
Description: as §1

[5] = CON1 14 mg/kg, at 48 h, disappeared after 72 h
[6] = DOX 7 mg/kg, CON1 14 mg/kg, 24, 48, 72 h

T1 sequence (P08183 whole entry): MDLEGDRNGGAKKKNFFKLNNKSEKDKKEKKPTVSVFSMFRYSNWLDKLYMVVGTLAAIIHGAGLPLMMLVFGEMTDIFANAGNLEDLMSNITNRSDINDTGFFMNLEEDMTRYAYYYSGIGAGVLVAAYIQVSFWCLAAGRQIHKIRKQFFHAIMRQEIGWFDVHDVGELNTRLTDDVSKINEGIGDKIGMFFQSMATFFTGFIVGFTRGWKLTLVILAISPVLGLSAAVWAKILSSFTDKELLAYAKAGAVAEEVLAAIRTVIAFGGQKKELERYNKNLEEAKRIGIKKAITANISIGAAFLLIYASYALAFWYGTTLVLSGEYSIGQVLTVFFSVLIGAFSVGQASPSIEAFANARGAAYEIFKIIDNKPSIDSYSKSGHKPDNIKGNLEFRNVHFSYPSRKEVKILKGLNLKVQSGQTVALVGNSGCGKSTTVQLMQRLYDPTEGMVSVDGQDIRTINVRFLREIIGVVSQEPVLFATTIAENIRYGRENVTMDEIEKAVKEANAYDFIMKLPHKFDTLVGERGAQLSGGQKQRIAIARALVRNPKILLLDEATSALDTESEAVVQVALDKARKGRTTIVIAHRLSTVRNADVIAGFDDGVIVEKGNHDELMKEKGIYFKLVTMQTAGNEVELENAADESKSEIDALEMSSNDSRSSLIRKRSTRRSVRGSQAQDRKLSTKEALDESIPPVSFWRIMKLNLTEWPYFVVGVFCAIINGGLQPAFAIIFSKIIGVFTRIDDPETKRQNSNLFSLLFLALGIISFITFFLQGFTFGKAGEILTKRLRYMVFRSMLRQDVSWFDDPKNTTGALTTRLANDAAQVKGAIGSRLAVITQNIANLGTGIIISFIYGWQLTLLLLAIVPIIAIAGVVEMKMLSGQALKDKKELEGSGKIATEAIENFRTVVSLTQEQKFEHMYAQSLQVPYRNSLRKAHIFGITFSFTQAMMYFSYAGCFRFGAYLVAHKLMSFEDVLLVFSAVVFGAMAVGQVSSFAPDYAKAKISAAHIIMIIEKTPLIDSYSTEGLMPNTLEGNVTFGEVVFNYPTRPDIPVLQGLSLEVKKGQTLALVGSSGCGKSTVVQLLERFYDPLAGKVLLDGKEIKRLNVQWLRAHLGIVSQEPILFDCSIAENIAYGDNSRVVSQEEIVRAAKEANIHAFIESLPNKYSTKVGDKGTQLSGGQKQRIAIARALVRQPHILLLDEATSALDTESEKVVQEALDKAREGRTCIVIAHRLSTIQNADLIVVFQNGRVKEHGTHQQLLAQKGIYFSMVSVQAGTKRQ

| accumulation of DOX ([3]; 50 μM SC with 20 μM DOX, 60 min) | accumulation of rhodamine 123 / P-glycoprotein activity ([3]; 50 μM SC with rhodamine 123, 30 min) | Compound | percentage of eosinophils (% EOS) ([1]; CON1 14 mg/kg) | Ca levels [1, 5] | Na levels [1, 5] | total bicarbonate (tCO2) ([1]; CON1 14 mg/kg, at 48 h, disappeared by 72 h) | alanine aminotransferase (ALT) [1, 6] | alkaline phosphatase (ALP) [1, 6] | creatine phosphokinase (CPK) ([1]; DOX 7 mg/kg, CON1 14 mg/kg) | other blood parameters (RBC, HGB, HCT, MCV, MCH, MCHC, RDW, PLT, MPV) ([1]; DOX 7 mg/kg, CON1 14 mg/kg) | percentage of lymphocytes (% LYM, LYM, WBC) ([1]; DOX 7 mg/kg, CON1 14 mg/kg) | percentage of monocytes and granulocytes (% MON and % GRA) ([1]; DOX 7 mg/kg, CON1 14 mg/kg) | IC50 ([2]; micromolar range in resistant lines, nanomolar in sensitive ones, read-out: DOX active concentration in resistant cancer cell lines) | levels of K ([1]; DOX 7 mg/kg, 24, 48, 72 h) | IC50 ([2]; range depending on the cell type, FIG. 1, MTT 72 h, read-out: IC50 value of 50% inhibition of cell growth) | accumulation of DOX [4] |
| --- | --- | --- | --- | --- | --- | --- | --- | --- | --- | --- | --- | --- | --- | --- | --- | --- |
| – | – | N1-((25,3S,4S,6R)-3-hydroxy-2-methyl-6-(((1S,3S)-3,5,12-trihydroxy-3-(2-hydroxyacetyl)-10-methoxy-6,11-dioxo-1,2,3,4,6,11-hexahydrotetracen-1-yl)oxy)tetrahydro-2H-pyran-4-yl)-N4-(3-((4-((R,E)-3-hydroxy-5-((1R,2R,4aS,8aS)-2-hydroxy-2,5,5,8a-tetramethyldecahydronaphthalen-1-yl)-3-methylpent-1-en-1-yl)benzyl)amino)propyl) succinamide [CON1] | not significantly relevant | temporary increase | decrease | transiently increased | did not change | increase ALP levels after 48 h | increased | None of the tested compounds, DOX or CON1, had any impact | did not have any impact | did not have any impact | – | – | – | – |
| – | – | COc1cccc2c1C(=O)c1c(O)c3c(c(O)c1C2=O)C[C@@](O)(C(=O)CO)C[C@@H]3O[C@H]1C[C@H](N)[C@H](O)[C@H](C)O1 [DOX, doxorubicin] | – | – | – | – | increase | significantly decrease | increased | None of the tested compounds, DOX or CON1, had any impact | decreased | increased | < 5 µM | consistently increased | – | – |
| increased | inhibition of P-glycoprotein activity | C=C[C@](C)(O)CC[C@@H]1[C@@]2(C)CCCC(C)(C)[C@@H]2CC[C@@]1(C)O [SC, sclareol] | – | – | – | – | – | – | – | – | – | – | – | – | 20 to 70 µM | increase the accumulation of DOX |
